Assay results published in patent US9133195B2, “Quaternary ammonium salt compounds of spirocyclopiperazines, preparation methods and uses thereof” (Peking University, priority 2006, dated 2015).
Like-named read-outs stand apart in the source and are kept apart here.

Tests used:
Body temperature in mice = format: in vivo; conditions: for Rectal temperature: before treatment
Description: (§1) All the following tests were carried out by using compound LXM-10 according to the routine methods.

mice [1] = test: Function of motion coordination (rota-rod); format: in vivo; conditions: for Time of falling down from rota-rod: before treatment
Description: as §1
The effect of muscle-relaxed effect on the analgesic effect of LXM-10 was also excluded.

Kunming mice [2] = test: Acetic acid-induced writhing test; format: in vivo; conditions: 0.5 h after s.c. administration
mice [3] = test: Spontaneous motion in mice; format: in vivo; conditions: for Numbers of movement: before treatment
Description: as §1

Acute toxicity test = conditions: in vivo, sc
Description: as §1

Kunming mice [4] = test: Acetic acid-induced writhing test; format: in vivo; conditions: Mus musculus, sc; 31.0 umol/kg s.c.; acetic acid i.p. after 30 min; writhing counted for 10 min
Description: Kunming mice, male and female in half, were randomly divided into groups with 8 mice in each group. The following groups were established: the normal saline (NS) control group, in which normal saline was administered by subcutaneous injection (s.c.); the test groups, in which 31.0 umol/kg quaternary ammonium salts compounds of piperazines of the present invention was administered by s.c. All drugs were dissolved in normal saline before use. The drug was injected at the dose of 0.1 ml/10 g. After 30 min, 0.2 ml of 0.6% acetic acid was injected intraperitoneally for each mouse. After 2˜3 min, the writhing reactions such as abdominal constriction, stretch of body and hind limbs, and hip raise occurred. Five minutes after acetic acid injection, the numbers of writhing was counted for 10 min. The percentage of inhibition was determined by using the following formula (1): Inhibition %=[(The numbers of writhing of control group−the numbers of writhing of drag injection group)/the numbers of writhing of control group]×100% (1) 2 Experimental Results
This experiment was carried out according to that of Example 36.

mice [5] = test: Addiction test (tail-erected response); format: in vivo; conditions: doses of 6.0, 12.0, 24.0 or 445.0 mg/kg
Description: as §1
They are quiet and normal.

ICR mice = test: Formalin test; format: in vivo; conditions: 0.5 h after s.c., dose not stated
Description: Sixty ICR mice, male and female in half, were divided into six groups with 10 mice in each group. The following groups were established: the normal saline (NS) control group, in which normal saline was administered by s.c.; the aspirin control group, in which aspirin was administered by i.g. at the dose of 300 mg/kg; the morphine control, group, in which morphine was administered (s.c.) at the dose of 10.0 mg/kg; and compound LXM-10 groups, in which compound LXM-10 were administered (s.c.) at the dose of 0.75, 1.5, 3.0 and 6.0 mg/kg. All drugs were dissolved in normal saline before use. The drugs injected at the dose of 0.1 ml/10 g. 30 min after administration, animals were administered 20 ul of 2.5% formalin solution on the right front paws. The licking times were recorded immediately in the duration of 0˜5 minutes as phase I reaction; After 20 minutes, the licking times were recorded in the duration of 20˜25 minutes as phase II reaction. The percentage of pain inhibition (%) was determined by using the following formula (5): Pain inhibition %=[(The licking time of normal saline control group−the licking time of drug injection group)/the licking time of normal saline control group]×100% (5) 2. Experimental Results

mice [6] = test: Hot-plate test; format: in vivo; conditions: for pain threshold elevated rate (PTE %): at 2.0 h, 55° C. hot-plate; for ED50: Mus musculus, sc
Description: The temperature of the hot-plate was adjusted to 55° C. With licking hind paws and jumping as observation index, the time from placing of the animal on the hot plate to observation the above reactions was recorded as latency time, Latency time was measured for three times and calculated their mean value as Basal threshold or Baseline latency (BL), Mice with latency time of less than 5 s or more than 10 s were eliminated from the study. The remaining mice were divided into 8 groups, and 10 mice in each group. The following groups were established: the normal saline control group (NS), in which normal saline was administered (s.c.); the morphine control group (Mor), in which morphine was administered (s.c.) at the dose of 10.0 mg/kg; and compound LXM-10 groups, in which compound LXM-10 were administered (s.c.) at the dose of 0.75, 1.5, 3.0, 6.0, 12.0 and 24.0 mg/kg. All drugs were dissolved in normal saline before use. The drugs injected at the dose of 0.1 ml/10 g. The latency times were measured at 1.0, 1.5, 2.0, and 3.0 h after administering LXM-10. The cut-off time was set at 30 s to avoid skin scald. The percentage of pain threshold elevated rate (PTE %) was determined by using the following formula (2): PTE %=(The latency time of drug injection group−the latency time of control group at the corresponding time point)/the latency time of control group at the corresponding time point×100% (2)
To judge whether LXM-10 was effective as analgesic using this criterion: at the peak time point of this compound, the latency times of each compound LXM-10 group was greater than the mean latency time of normal saline control group at the corresponding time point plus three times of standard deviation. The effective percentage of each group was calculated made data conversion, then calculated the analgesic ED50 and 95% confidence interval (CI) in accordance with the formulae (3) and (4) using General Method for Calculating.
Wherein, Xm represents the logarithm value of the largest dose, i refers to group interval, ΣP refers to the sum of each group's efficiency, ΣP^2 represents the square sum of each group's efficiency, n refers to numbers of experimental groups.

## CC1C[N+]2(CCN(CCc3ccccc3)CC2)CC(C)O1 (stereo not drawn) [LXM-10, 2,4-dimethyl-9-β-phenylethyl-3-oxo-6,9-diazaspiro[5.5]undecane chloride]
Body temperature in mice; 6.0 mg/kg, 0.5 h
  Rectal temperature after treatment: 37.3 ± 0.35 °C
Body temperature in mice; 6.0 mg/kg, 2.0 h
  Rectal temperature after treatment: 37.3 ± 0.28 °C
Body temperature in mice; 6.0 mg/kg, 3.5 h
  Rectal temperature after treatment: 37.5 ± 0.29 °C
Body temperature in mice; 6.0 mg/kg
  Rectal temperature: 37.7 ± 0.34 °C
Body temperature in mice; 12.0 mg/kg, 0.5 h
  Rectal temperature after treatment: 37.0 ± 0.26 °C
Body temperature in mice; 12.0 mg/kg, 2.0 h
  Rectal temperature after treatment: 37.1 ± 0.24 °C
Body temperature in mice; 12.0 mg/kg, 3.5 h
  Rectal temperature after treatment: 37.1 ± 0.20 °C
Body temperature in mice; 12.0 mg/kg
  Rectal temperature: 37.1 ± 0.09 °C
Body temperature in mice; 24.0 mg/kg, 0.5 h
  Rectal temperature after treatment: 37.5 ± 0.21 °C
Body temperature in mice; 24.0 mg/kg, 2.0 h
  Rectal temperature after treatment: 37.0 ± 0.19 °C
Body temperature in mice; 24.0 mg/kg, 3.5 h
  Rectal temperature after treatment: 37.3 ± 0.16 °C
Body temperature in mice; 24.0 mg/kg
  Rectal temperature: 37.0 ± 0.18 °C
Body temperature in mice; 6.0, 12.0, 24.0 mg/kg
  effect on body temperature: did not affect
Mice [1]; 6.0 mg/kg, 0.5 h
  Time of falling down from rota-rod after treatment: 106.5 ± 8.88 s
Mice [1]; 6.0 mg/kg, 2.0 h
  Time of falling down from rota-rod after treatment: 110.0 ± 5.17 s
Mice [1]; 6.0 mg/kg, 3.5 h
  Time of falling down from rota-rod after treatment: 116.2 ± 3.75 s
Mice [1]; 6.0 mg/kg
  Time of falling down from rota-rod: 96.7 ± 9.17 s
Mice [1]; 12.0 mg/kg, 0.5 h
  Time of falling down from rota-rod after treatment: 109.6 ± 10.3 s
Mice [1]; 12.0 mg/kg, 2.0 h
  Time of falling down from rota-rod after treatment: 109.3 ± 8.15 s
Mice [1]; 12.0 mg/kg, 3.5 h
  Time of falling down from rota-rod after treatment: 119.6 ± 0.38 s
Mice [1]; 12.0 mg/kg
  Time of falling down from rota-rod: 96.6 ± 8.93 s
Mice [1]; 24.0 mg/kg, 0.5 h
  Time of falling down from rota-rod after treatment: 112.7 ± 5.18 s
Mice [1]; 24.0 mg/kg, 2.0 h
  Time of falling down from rota-rod after treatment: 117.5 ± 2.50 s
Mice [1]; 24.0 mg/kg, 3.5 h
  Time of falling down from rota-rod after treatment: 119.0 ± 1.00 s
Mice [1]; 24.0 mg/kg
  Time of falling down from rota-rod: 101.2 ± 9.15 s
Mice [1]; 6.0, 12.0, 24.0 mg/kg
  effect on function of motion coordination: did not significantly affect
Kunming mice [2]; 1.5 mg/kg
  percentage of pain inhibition: 63.4%
Kunming mice [2]; 3.0 mg/kg
  percentage of pain inhibition: 78.8%
Kunming mice [2]; 6.0 mg/kg
  percentage of pain inhibition: 79.2%
Kunming mice [2]; 12.0 mg/kg
  percentage of pain inhibition: 55.6%
Mice [3]; 6.0 mg/kg, 0.5 h
  Numbers of movement after treatment: 46.6 ± 2.63
Mice [3]; 6.0 mg/kg, 2.0 h
  Numbers of movement after treatment: 42.3 ± 3.38
Mice [3]; 6.0 mg/kg, 3.5 h
  Numbers of movement after treatment: 48.0 ± 5.00
Mice [3]; 6.0 mg/kg
  Numbers of movement: 46.8 ± 1.96
Mice [3]; 12.0 mg/kg, 0.5 h
  Numbers of movement after treatment: 48.0 ± 6.21
Mice [3]; 12.0 mg/kg, 2.0 h
  Numbers of movement after treatment: 48.1 ± 6.14
Mice [3]; 12.0 mg/kg, 3.5 h
  Numbers of movement after treatment: 48.0 ± 7.85
Mice [3]; 12.0 mg/kg
  Numbers of movement: 47.7 ± 2.55
Mice [3]; 24.0 mg/kg, 0.5 h
  Numbers of movement after treatment: 43.5 ± 4.21
Mice [3]; 24.0 mg/kg, 2.0 h
  Numbers of movement after treatment: 45.5 ± 6.05
Mice [3]; 24.0 mg/kg, 3.5 h
  Numbers of movement after treatment: 46.6 ± 3.69
Mice [3]; 24.0 mg/kg
  Numbers of movement: 50.2 ± 2.31
Mice [3]; 6.0, 12.0, 24.0 mg/kg
  effect on spontaneous motion: did not significantly affect
Acute toxicity test; read-out: LD50
  LD50: 514 mg/kg
Acute toxicity test; read-out: LD50 95% confidence interval
  LD50: 495 to 531 mg/kg
Kunming mice [4]
  inhibition in vivo at 31 µmol/kg: 65%
Mice [5]
  tail-erected response: no tail-erected response
ICR mice; first of three values
  percentage of pain inhibition, Phase II: 67.0%
ICR mice; second of three values
  percentage of pain inhibition, Phase II: 69.6%
ICR mice; third of three values
  percentage of pain inhibition, Phase II: 50.0%
Mice [6]; 1.5 mg/kg s.c.
  pain threshold elevated rate (PTE %): 47.5%
Mice [6]; 3.0 mg/kg s.c.
  pain threshold elevated rate (PTE %): 54.8%
Mice [6]; 6.0 mg/kg s.c.
  pain threshold elevated rate (PTE %): 79.2%
Mice [6]; 12.0 mg/kg s.c.
  pain threshold elevated rate (PTE %): 126.8%
Mice [6]; hot-plate, at peak time, read-out: analgesic ED50
  ED50: 3.2 mg/kg
Mice [6]; hot-plate, read-out: ED50 95% confidence interval
  ED50: 1.8 to 5.4 mg/kg
Mice [6]; s.c., hot-plate
  analgesic effect persisted to: 3.0 h
  onset time of analgesic effect: 1.0 h
  peak time of analgesic effect: 2.0 h
